Measured values published in PubChem BioAssay (NCI).
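Dose response: 5 concentrations. Exposure: 48 h. Format: 96-well plates. Endpoint: linear interpolation; highest concentration if not reached. TGI: concentration producing complete growth inhibition.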

What was measured:
Assay in all cases: NCI anticancer screen, dose series, 48 h
786-0 renal = system: 786-0 renal
A498 renal = system: A498 renal
A549 NSCLC = system: A549 NSCLC
ACHN renal = system: ACHN renal
BT-549 breast = system: BT-549 breast
CAKI-1 renal = system: CAKI-1 renal
CCRF-CEM leukemia = system: CCRF-CEM leukemia
COLO 205 colon = system: COLO 205 colon
DU-145 prostate = system: DU-145 prostate
EKVX NSCLC = system: EKVX NSCLC
HCC-2998 colon = system: HCC-2998 colon
HCT-116 colon = system: HCT-116 colon
HCT-15 colon = system: HCT-15 colon
HL-60(TB) leukemia = system: HL-60(TB) leukemia
HOP-62 NSCLC = system: HOP-62 NSCLC
HOP-92 NSCLC = system: HOP-92 NSCLC
HS 578T breast = system: HS 578T breast
HT29 colon = system: HT29 colon
IGROV1 ovarian = system: IGROV1 ovarian
K-562 leukemia = system: K-562 leukemia
KM12 colon = system: KM12 colon
LOX IMVI melanoma = system: LOX IMVI melanoma
M14 melanoma = system: M14 melanoma
MALME-3M melanoma = system: MALME-3M melanoma
MDA-MB-231 breast = system: MDA-MB-231 breast
MDA-MB-435 = system: MDA-MB-435
MDA-N = system: MDA-N
MOLT-4 leukemia = system: MOLT-4 leukemia
NCI-H226 lung = system: NCI-H226 lung
NCI-H23 lung = system: NCI-H23 lung
NCI-H460 lung = system: NCI-H460 lung
NCI/ADR-RES ovarian = system: NCI/ADR-RES ovarian
OVCAR-3 ovarian = system: OVCAR-3 ovarian
OVCAR-4 ovarian = system: OVCAR-4 ovarian
OVCAR-5 ovarian = system: OVCAR-5 ovarian
OVCAR-8 ovarian = system: OVCAR-8 ovarian
PC-3 prostate = system: PC-3 prostate
SK-MEL-2 melanoma = system: SK-MEL-2 melanoma
SK-MEL-28 melanoma = system: SK-MEL-28 melanoma
SK-MEL-5 melanoma = system: SK-MEL-5 melanoma
SN12C renal = system: SN12C renal
SNB-19 CNS = system: SNB-19 CNS
SNB-75 CNS = system: SNB-75 CNS
SR leukemia = system: SR leukemia
SW-620 colon = system: SW-620 colon
T-47D breast = system: T-47D breast
TK-10 renal = system: TK-10 renal
U251 CNS = system: U251 CNS
UACC-257 melanoma = system: UACC-257 melanoma
UACC-62 melanoma = system: UACC-62 melanoma
UO-31 renal = system: UO-31 renal

Measured: TGI

COc1ccc(CCCNC(=O)Cc2cc(OC)c(OC)cc2CO)cc1OC
> 100 µM: 786-0 renal | A498 renal | A549 NSCLC | ACHN renal | BT-549 breast | CAKI-1 renal | CCRF-CEM leukemia | COLO 205 colon | DU-145 prostate | EKVX NSCLC | HCC-2998 colon | HCT-116 colon | HCT-15 colon | HL-60(TB) leukemia | HOP-62 NSCLC | HOP-92 NSCLC | HS 578T breast | HT29 colon | IGROV1 ovarian | K-562 leukemia | KM12 colon | LOX IMVI melanoma | M14 melanoma | MALME-3M melanoma | MDA-MB-231 breast | MDA-MB-435 | MDA-N | MOLT-4 leukemia | NCI-H226 lung | NCI-H23 lung | NCI-H460 lung | NCI/ADR-RES ovarian | OVCAR-3 ovarian | OVCAR-4 ovarian | OVCAR-5 ovarian | OVCAR-8 ovarian | PC-3 prostate | SK-MEL-2 melanoma | SK-MEL-28 melanoma | SK-MEL-5 melanoma | SN12C renal | SNB-19 CNS | SNB-75 CNS | SR leukemia | SW-620 colon | T-47D breast | TK-10 renal | U251 CNS | UACC-257 melanoma | UACC-62 melanoma | UO-31 renal
